Data: patent publication US20240116951A1, “HETEROCYCLIC COMPOUNDS AND USES THEREOF” (Kumquat Biosciences Inc., priority 2022, published 2024)

Legend:
Type in all cases: binding
KRAS G12D = molecular target: T1, KRAS G12D (Homo sapiens, UniProt P01116, G12D); test: HTRF assay of K-Ras G12D interaction with SOS1 (PPI-HTRF); details: HTRF, 5 nM KRAS G12D; read-out: PPI-HTRF-5 nM KRAS G12D
T1 construct: made in house; host or cells: E. coli, e.g. BL21 (DE3)
Source text: (§1) This assay can be also used to assess a selective inhibition or reduction of signaling output of a mutant Ras protein relative to a wildtype, or relative to a different mutant Ras protein. For example, the equilibrium interaction of wildtype Kras or K-Ras mutant (e.g., wildtype or a mutant thereof including those mentioned in Example 4) with SOS1 (e.g., hSOS1) can be assessed as a proxy or an indication for a subject compound's ability to bind and inhibit Ras protein. HTRF assay detects from (i) a fluorescence resonance energy transfer (FRET) donor (e.g., antiGST-Europium) that is bound to GST-tagged K-Ras mutant to (ii) a FRET acceptor (e.g., anti-6His-XL665) bound to a His-tagged hSOS1.
(§2) The assay buffer can contain ˜5 mM HEPES pH 7.4, ˜150 mM NaCl, ˜1 mM DTT, 0.05% BSA and 0.0025% (v/v) Igepal. A Ras working solution is prepared in an assay buffer containing typically a suitable amount of the protein construct (e.g., GST-tagged K-Ras mutant) and the FRET donor (e.g., antiGST-Eu(K) from Cisbio, France). A SOS1 working solution is prepared in an assay buffer containing suitable amount of the protein construct (e.g., His-hSOS1) and the FRET acceptor (e.g., anti-6His-XL665 from Cisbio, France). A suitable amount of the protein construct will depend on the range of activity or range of IC50 values being detected or under investigation. For detecting IC50 within a range of 500 nM, the protein constructs of the same range of molarity can be utilized. […] A fixed volume of DMSO with or without test compound is transferred into a 384-well plate. Ras working solution is added to all wells of the test plate. SOS1 working solution is added to all wells except for those that are subsequently filled the inhibitor control solution. Upon incubation for about 10 minutes or longer, the fluorescence is measured with a M1000Pro plate reader (Tecan) using HTRF detection (excitation 337 nm, emission 1: 620 nm, emission 2: 665 nm). Compounds are tested in duplicates at different concentrations (for example, 10 μM, 2.5 μM, 0.63 μM, 0.16 μM, 0.04 μM, 0.01 μM test compound). The ratiometric data (i.e., emission 2 divided by emission 1) is used to calculate IC50 values against Ras using GraphPad Prism (GraphPad software). Following this general procedure, samples were tested with or without a subject compound disclosed herein including compounds exemplified in Table 1 to assess their abilities to inhibit a mutant K-Ras relative to another mutant K-Ras or wildtype K-Ras. Signaling output measured in terms of IC50 values can be obtained, a ratio of IC50 against one mutant relative to another mutant can be calculated. For instance, a selective reduction of K-Ras G12D signaling output can be evidenced by a ratio greater than one. In particular, a selective reduction of K-Ras G12D signaling relative to K-Ras WT signaling is evidenced as the ratio of IC50 (against K-Ras WT) to IC50 (against K-Ras G12D) is greater than 1.

KRAS WT = molecular target: T2, KRAS WT (Homo sapiens, UniProt P01116); test: HTRF assay of wildtype K-Ras interaction with SOS1 (PPI-HTRF); details: HTRF, 5 nM KRAS WT; read-out: PPI-HTRF-5 nM KRAS WT
T2 construct: made in house; host or cells: E. coli, e.g. BL21 (DE3)
Source text: as §1, §2

KRAS G12S = molecular target: T3, KRAS G12S (Homo sapiens, UniProt P01116, G12S); test: HTRF assay of K-Ras G12S interaction with SOS1 (PPI-HTRF); details: 5 nM KRAS G12S, read-out: PPI-HTRF-5 nM KRAS G12S
T3 construct: made in house; host or cells: E. coli, e.g. BL21 (DE3)
Source text: as §1, §2

T3 sequence (P01116 1-188 isoform P01116-2 G12S): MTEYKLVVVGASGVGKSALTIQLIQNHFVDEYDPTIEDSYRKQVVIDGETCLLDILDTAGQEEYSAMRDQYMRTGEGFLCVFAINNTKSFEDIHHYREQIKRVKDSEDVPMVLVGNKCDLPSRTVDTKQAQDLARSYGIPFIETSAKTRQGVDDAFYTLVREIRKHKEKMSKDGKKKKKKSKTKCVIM
T2 sequence (P01116 1-188 isoform P01116-2): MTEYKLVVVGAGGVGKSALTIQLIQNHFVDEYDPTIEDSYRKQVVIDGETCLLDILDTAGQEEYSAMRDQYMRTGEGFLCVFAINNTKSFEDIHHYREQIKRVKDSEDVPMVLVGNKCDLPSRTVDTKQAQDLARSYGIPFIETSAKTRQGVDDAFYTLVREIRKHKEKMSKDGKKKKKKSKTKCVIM
T1 sequence (P01116 1-188 isoform P01116-2 G12D): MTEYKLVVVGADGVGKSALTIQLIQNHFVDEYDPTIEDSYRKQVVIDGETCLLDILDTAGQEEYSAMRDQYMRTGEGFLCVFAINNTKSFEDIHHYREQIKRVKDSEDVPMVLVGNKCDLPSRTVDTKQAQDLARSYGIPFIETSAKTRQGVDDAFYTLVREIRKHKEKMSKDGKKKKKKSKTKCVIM

| IC50 (KRAS G12D) | IC50 (KRAS WT) | IC50 (KRAS G12S) | SMILES |
| --- | --- | --- | --- |
| < 5 µM | < 5 µM | < 5 µM | N#Cc1c(N)sc2c(F)ccc(-c3c(Cl)cc4c(N5CCC6(CCN6C(=O)n6cnc(C7CC7)n6)C5)nc(OC[C@@]56CCCN5C[C@H](F)C6)nc4c3F)c12 (stereo partly drawn) [Compound 308, 2-amino-4-(6-chloro-4-(1-(3-cyclopropyl-1H-1,2,4-triazole-1-carbonyl)-1,6-diazaspiro[3.4]octan-6-yl)-8-fluoro-2-(((2R,7aS)-2-fluorotetrahydro-1H-pyrrolizin-7a(5H)-yl)methoxy)quinazolin-7-yl)-7-fluorobenzo[b]thiophene-3-carbonitrile] |
| < 5 µM | < 5 µM | < 5 µM | N#Cc1c(N)sc2c(F)ccc(-c3c(Cl)cc4c(N5CCCCC6(CCN6C(=O)n6cncn6)C5)nc(OC[C@@]56CCCN5C[C@H](F)C6)nc4c3F)c12 (stereo partly drawn) [Compound 350] |
| < 5 µM | < 5 µM | < 5 µM | COCc1ncn(C(=O)N2CCC23CCN(c2nc(OC[C@@]45CCCN4C[C@H](F)C5)nc4c(F)c(-c5ccc(F)c6sc(N)c(C#N)c56)c(Cl)cc24)C3)n1 (stereo partly drawn) [Compound 313, 2-amino-4-(6-chloro-8-fluoro-2-(((2R,7aS)-2-fluorotetrahydro-1H-pyrrolizin-7a(5H)-yl)methoxy)-4-(1-(3-(methoxymethyl)-1H-1,2,4-triazole-1-carbonyl)-1,6-diazaspiro[3.4]octan-6-yl)quinazolin-7-yl)-7-fluorobenzo[b]thiophene-3-carbonitrile] |
| < 5 µM | < 5 µM | < 5 µM | N#Cc1cn(C(=O)N2CCC23CCN(c2nc(OC[C@@]45CCCN4C[C@H](F)C5)nc4c(F)c(-c5ccc(F)c6sc(N)c(C#N)c56)c(Cl)cc24)C3)cn1 (stereo partly drawn) [Compound 310, 1-(6-(7-(2-amino-3-cyano-7-fluorobenzo[b]thiophen-4-yl)-6-chloro-8-fluoro-2-(((2R,7aS)-2-fluorotetrahydro-1H-pyrrolizin-7a(5H)-yl)methoxy)quinazolin-4-yl)-1,6-diazaspiro[3.4]octane-1-carbonyl)-1H-imidazole-4-carbonitrile] |
| < 5 µM | < 5 µM | < 5 µM | C[C@H](Oc1nc(N2CCC3(CCN3C(=O)c3ccnn3C)C2)c2cc(Cl)c(-c3ccc(F)c4sc(N)c(C#N)c34)c(F)c2n1)[C@@H]1CCCN1C (stereo partly drawn) [Compound 274, 2-amino-4-(6-chloro-8-fluoro-4-(1-(1-methyl-1H-pyrazole-5-carbonyl)-1,6-diazaspiro[3.4]octan-6-yl)-2-((S)-1-((S)-1-methylpyrrolidin-2-yl)ethoxy)quinazolin-7-yl)-7-fluorobenzo[b]thiophene-3-carbonitrile] |
| < 5 µM | < 5 µM | < 5 µM | N#Cc1ncn(C(=O)N2CC[C@@]23CCN(c2nc(OC[C@@]45CCCN4C[C@H](F)C5)nc4c(F)c(-c5ccc(F)c6sc(N)c(C#N)c56)c(Cl)cc24)C3)n1 [Compound 321, 1-((4R)-6-(7-(2-amino-3-cyano-7-fluorobenzo[b]thiophen-4-yl)-6-chloro-8-fluoro-2-(((2R,7aS)-2-fluorotetrahydro-1H-pyrrolizin-7a(5H)-yl)methoxy)quinazolin-4-yl)-1,6-diazaspiro[3.4]octane-1-carbonyl)-1H-1,2,4-triazole-3-carbonitrile] |
| < 5 µM | < 5 µM | < 5 µM | C[C@H](Oc1nc(N2CCCC3(CCN3C(=O)C3CC3(F)F)C2)c2cc(Cl)c(-c3ccc(F)c4sc(N)c(C#N)c34)c(F)c2n1)[C@@H]1CCCN1C (stereo partly drawn) [Compound 223, 2-Amino-4-(6-chloro-4-(1-(2,2-difluorocyclopropane-1-carbonyl)-1,6-diazaspiro[3.5]nonan-6-yl)-8-fluoro-2-((S)-1-((S)-1-methylpyrrolidin-2-yl)ethoxy)quinazolin-7-yl)-7-fluorobenzo[b]thiophene-3-carbonitrile] |
| < 5 µM | < 5 µM | < 5 µM | N#CCC1CN(c2nc(OC[C@@]34CCCN3C[C@H](F)C4)nc3c(F)c(-c4ccc(F)c5sc(N)c(C#N)c45)c(Cl)cc23)CC12CCN2C(=O)n1cnc(C(F)F)n1 (stereo partly drawn) [Compound 329, 2-amino-4-(6-chloro-4-(8-(cyanomethyl)-1-(3-(difluoromethyl)-1H-1,2,4-triazole-1-carbonyl)-1,6-diazaspiro[3.4]octan-6-yl)-8-fluoro-2-(((2R,7aS)-2-fluorotetrahydro-1H-pyrrolizin-7a(5H)-yl)methoxy)quinazolin-7-yl)-7-fluorobenzo[b]thiophene-3-carbonitrile] |
| < 5 µM | < 5 µM | < 5 µM | N#Cc1c(N)sc2c(F)ccc(-c3c(Cl)cc4c(N5CCC6(CCCN6C(=O)n6cncn6)C5)nc(OC[C@@]56CCCN5C[C@H](F)C6)nc4c3F)c12 (stereo partly drawn) [Compound 261, 4-(4-(1-(1H-1,2,4-triazole-1-carbonyl)-1,7-diazaspiro[4.4]nonan-7-yl)-6-chloro-8-fluoro-2-(((2R,7aS)-2-fluorotetrahydro-1H-pyrrolizin-7a(5H)-yl)methoxy)quinazolin-7-yl)-2-amino-7-fluorobenzo[b]thiophene-3-carbonitrile] |
| < 5 µM | < 5 µM | < 5 µM | N#Cc1c(N)sc2c(F)ccc(-c3c(Cl)cc4c(N5CCC6(CCCN6C(=O)C6CC6(F)F)C5)nc(OC[C@@]56CCCN5C[C@H](F)C6)nc4c3F)c12 (stereo partly drawn) [Compound 217, 2-amino-4-(6-chloro-4-(1-(2,2-difluorocyclopropane-1-carbonyl)-1,7-diazaspiro[4.4]nonan-7-yl)-8-fluoro-2-(((2R,7aS)-2-fluorotetrahydro-1H-pyrrolizin-7a(5H)-yl)methoxy)quinazolin-7-yl)-7-fluorobenzo[b]thiophene-3-carbonitrile] |
| < 5 µM | < 5 µM | < 5 µM | C[C@H](Oc1nc(N2CCC3(CCN3C(=O)n3cncn3)C2)c2cc(Cl)c(-c3ccc(F)c4sc(N)c(C#N)c34)c(F)c2n1)[C@@H]1CCCN1C (stereo partly drawn) [Compound 207, 4-(4-(1-(1H-1,2,4-triazole-1-carbonyl)-1,6-diazaspiro[3.4]octan-6-yl)-6-chloro-8-fluoro-2-((S)-1-((S)-1-methylpyrrolidin-2-yl)ethoxy)quinazolin-7-yl)-2-amino-7-fluorobenzo[b]thiophene-3-carbonitrile] |
| < 5 µM | < 5 µM | < 5 µM | N#Cc1c(N)sc2c(F)ccc(-c3c(Cl)cc4c(N5CCC6(COCCN6C#N)C5)nc(OC[C@@]56CCCN5C[C@H](F)C6)nc4c3F)c12 (stereo partly drawn) [Compound 302, 2-(7-(2-amino-3-cyano-7-fluorobenzo[b]thiophen-4-yl)-6-chloro-8-fluoro-2-(((2R,7aS)-2-fluorotetrahydro-1H-pyrrolizin-7a(5H)-yl)methoxy)quinazolin-4-yl)-9-oxa-2,6-diazaspiro[4.5]decane-6-carbonitrile] |
| < 5 µM | < 5 µM | < 5 µM | N#Cc1c(N)sc2c(F)ccc(-c3c(Cl)cc4c(N5CC6(CCN6C(=O)n6cncn6)C5)nc(OC[C@@]56CCCN5C[C@H](F)C6)nc4c3F)c12 [Compound 238, 4-(4-(1-(1H-1,2,4-triazole-1-carbonyl)-1,6-diazaspiro[3.3]heptan-6-yl)-6-chloro-8-fluoro-2-(((2R,7aS)-2-fluorotetrahydro-1H-pyrrolizin-7a(5H)-yl)methoxy)quinazolin-7-yl)-2-amino-7-fluorobenzo[b]thiophene-3-carbonitrile] |
